ChEMBL document CHEMBL1145498, “A systematic interaction map of validated kinase inhibitors with Ser/Thr kinases” (Proc Natl Acad Sci U S A, 2007)

Tests used:
[1] = target: Calcium/calmodulin-dependent protein kinase type 1D (Homo sapiens) (UniProt Q8IU85)
[2] = target: T1, Calcium/calmodulin-dependent protein kinase type IV (Homo sapiens) (UniProt Q16566)
T1 sequence (whole entry): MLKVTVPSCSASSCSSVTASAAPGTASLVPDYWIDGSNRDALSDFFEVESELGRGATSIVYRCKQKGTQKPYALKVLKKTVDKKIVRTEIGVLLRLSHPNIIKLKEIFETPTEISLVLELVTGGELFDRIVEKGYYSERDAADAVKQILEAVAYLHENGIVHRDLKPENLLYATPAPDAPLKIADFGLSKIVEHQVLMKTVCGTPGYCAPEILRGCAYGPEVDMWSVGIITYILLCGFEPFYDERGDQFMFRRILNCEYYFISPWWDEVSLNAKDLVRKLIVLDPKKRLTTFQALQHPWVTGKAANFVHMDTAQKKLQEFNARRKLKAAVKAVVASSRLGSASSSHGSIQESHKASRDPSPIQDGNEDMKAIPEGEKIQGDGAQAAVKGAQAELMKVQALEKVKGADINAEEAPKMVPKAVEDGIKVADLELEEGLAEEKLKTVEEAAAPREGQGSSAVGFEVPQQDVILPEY

[3] = target: Glycogen synthase kinase-3 beta (Homo sapiens, UniProt P49841)
[4] = target: T2, Mitogen-activated protein kinase kinase kinase 5 (Homo sapiens) (UniProt Q99683)
T2 sequence (whole entry): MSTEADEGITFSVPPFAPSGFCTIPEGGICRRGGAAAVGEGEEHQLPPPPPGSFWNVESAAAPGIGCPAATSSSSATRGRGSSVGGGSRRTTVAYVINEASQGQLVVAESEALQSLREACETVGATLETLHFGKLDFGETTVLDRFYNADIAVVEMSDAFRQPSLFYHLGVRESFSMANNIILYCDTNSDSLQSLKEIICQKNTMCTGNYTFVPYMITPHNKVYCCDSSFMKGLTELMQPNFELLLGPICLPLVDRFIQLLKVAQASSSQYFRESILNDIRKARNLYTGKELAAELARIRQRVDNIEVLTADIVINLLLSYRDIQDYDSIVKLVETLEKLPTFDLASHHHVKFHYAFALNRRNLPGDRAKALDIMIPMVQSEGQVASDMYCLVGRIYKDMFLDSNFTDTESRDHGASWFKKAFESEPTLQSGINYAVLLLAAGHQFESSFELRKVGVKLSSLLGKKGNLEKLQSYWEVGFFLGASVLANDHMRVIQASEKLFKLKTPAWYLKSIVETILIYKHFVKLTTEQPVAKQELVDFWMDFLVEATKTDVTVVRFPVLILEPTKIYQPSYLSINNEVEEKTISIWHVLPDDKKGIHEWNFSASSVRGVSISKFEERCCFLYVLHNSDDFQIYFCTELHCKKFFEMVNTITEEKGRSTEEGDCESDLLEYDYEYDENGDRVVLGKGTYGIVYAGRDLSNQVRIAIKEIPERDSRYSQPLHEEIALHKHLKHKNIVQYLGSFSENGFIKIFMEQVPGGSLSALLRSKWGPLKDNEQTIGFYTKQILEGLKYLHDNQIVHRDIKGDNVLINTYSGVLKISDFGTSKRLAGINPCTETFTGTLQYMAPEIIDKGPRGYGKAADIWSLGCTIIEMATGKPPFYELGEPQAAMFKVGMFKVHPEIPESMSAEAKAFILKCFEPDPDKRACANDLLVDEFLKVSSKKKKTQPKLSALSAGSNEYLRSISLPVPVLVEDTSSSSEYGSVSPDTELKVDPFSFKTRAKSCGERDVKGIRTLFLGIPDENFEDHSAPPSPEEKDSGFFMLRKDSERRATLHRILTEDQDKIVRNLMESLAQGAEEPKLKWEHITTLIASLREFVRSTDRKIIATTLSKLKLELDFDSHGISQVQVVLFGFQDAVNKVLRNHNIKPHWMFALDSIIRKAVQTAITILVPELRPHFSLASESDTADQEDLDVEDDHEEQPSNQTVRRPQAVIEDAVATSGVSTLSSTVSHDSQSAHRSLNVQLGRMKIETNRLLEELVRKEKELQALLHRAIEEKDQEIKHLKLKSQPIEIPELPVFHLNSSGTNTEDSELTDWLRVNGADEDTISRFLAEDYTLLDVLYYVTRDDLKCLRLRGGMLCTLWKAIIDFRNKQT

[5] = target: Mitogen-activated protein kinase 6 (Homo sapiens) (UniProt Q16659)
[6] = target: T3, Serine/threonine-protein kinase Nek2 (Homo sapiens) (UniProt P51955)
T3 sequence (whole entry): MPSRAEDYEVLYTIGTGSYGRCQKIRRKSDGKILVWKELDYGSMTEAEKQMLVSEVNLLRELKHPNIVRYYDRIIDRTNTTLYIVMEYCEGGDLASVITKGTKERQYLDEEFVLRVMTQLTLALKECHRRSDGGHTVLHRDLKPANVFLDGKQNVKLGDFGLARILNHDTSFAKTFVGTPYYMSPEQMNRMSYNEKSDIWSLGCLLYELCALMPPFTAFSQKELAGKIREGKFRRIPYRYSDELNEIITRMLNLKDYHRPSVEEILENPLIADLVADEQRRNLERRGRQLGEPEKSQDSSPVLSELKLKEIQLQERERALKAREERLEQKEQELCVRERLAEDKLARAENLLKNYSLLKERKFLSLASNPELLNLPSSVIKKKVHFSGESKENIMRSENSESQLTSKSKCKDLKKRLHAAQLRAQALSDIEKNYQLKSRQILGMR

[7] = target: Serine/threonine-protein kinase PAK 4 (Homo sapiens) (UniProt O96013)
[8] = target: Serine/threonine-protein kinase pim-2 (Homo sapiens, UniProt Q9P1W9)
[9] = target: Ribosomal protein S6 kinase alpha-3 (Homo sapiens) (UniProt P51812)
[10] = target: T4, Lymphokine-activated killer T-cell-originated protein kinase (Homo sapiens) (UniProt Q96KB5)
T4 sequence (whole entry): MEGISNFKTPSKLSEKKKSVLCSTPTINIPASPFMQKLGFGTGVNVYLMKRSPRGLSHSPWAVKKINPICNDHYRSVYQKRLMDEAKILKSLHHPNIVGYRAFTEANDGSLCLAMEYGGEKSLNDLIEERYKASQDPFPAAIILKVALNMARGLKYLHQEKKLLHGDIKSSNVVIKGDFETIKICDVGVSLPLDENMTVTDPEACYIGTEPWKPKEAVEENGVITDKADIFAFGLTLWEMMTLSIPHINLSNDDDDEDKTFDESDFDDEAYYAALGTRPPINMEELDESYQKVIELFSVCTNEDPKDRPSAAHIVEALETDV

Sequence of Glycogen synthase kinase-3 beta (P49841 whole entry, looked up): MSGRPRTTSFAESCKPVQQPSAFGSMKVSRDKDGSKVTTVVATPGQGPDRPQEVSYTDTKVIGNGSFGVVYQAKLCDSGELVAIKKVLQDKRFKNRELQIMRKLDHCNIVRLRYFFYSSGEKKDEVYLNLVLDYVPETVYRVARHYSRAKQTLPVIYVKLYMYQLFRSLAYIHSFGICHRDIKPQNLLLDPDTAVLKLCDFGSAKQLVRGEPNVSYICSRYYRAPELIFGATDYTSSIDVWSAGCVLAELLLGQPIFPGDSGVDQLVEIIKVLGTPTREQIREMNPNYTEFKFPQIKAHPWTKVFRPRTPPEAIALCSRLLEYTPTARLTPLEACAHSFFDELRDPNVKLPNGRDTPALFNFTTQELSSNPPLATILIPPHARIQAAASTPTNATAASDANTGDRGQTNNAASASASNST
Sequence of Calcium/calmodulin-dependent protein kinase type 1D (Homo sapiens) (Q8IU85 whole entry, looked up): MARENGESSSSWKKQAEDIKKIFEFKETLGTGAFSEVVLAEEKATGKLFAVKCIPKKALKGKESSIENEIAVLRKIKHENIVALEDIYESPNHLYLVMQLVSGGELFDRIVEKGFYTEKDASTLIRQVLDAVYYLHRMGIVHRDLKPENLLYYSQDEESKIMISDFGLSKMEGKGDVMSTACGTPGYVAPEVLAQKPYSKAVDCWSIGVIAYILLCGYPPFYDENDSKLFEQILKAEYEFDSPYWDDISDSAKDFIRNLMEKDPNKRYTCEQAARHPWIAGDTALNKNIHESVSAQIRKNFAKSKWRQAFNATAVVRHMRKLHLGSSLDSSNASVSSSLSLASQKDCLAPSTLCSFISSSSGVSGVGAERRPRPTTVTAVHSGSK
Sequence of Mitogen-activated protein kinase 6 (Homo sapiens) (Q16659 whole entry): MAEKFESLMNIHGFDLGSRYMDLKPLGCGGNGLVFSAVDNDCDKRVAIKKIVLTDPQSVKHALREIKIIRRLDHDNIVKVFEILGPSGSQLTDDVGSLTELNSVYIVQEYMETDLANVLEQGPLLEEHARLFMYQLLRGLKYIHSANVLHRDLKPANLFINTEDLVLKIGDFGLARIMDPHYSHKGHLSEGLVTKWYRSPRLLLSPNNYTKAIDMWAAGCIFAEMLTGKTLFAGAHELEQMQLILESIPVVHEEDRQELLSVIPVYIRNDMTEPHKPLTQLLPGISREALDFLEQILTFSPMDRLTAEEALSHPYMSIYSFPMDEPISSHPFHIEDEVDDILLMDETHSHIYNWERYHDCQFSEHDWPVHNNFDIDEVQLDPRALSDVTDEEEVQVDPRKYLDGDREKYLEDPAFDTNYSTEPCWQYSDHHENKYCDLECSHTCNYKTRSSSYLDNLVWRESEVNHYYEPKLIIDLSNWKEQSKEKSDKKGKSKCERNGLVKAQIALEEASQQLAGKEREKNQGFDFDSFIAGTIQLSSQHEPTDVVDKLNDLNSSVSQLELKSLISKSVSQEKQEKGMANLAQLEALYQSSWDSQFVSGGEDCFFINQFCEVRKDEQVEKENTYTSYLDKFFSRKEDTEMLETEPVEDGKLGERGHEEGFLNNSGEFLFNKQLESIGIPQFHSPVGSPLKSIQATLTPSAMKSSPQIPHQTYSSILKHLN
Sequence of Serine/threonine-protein kinase pim-2 (Q9P1W9 whole entry, looked up): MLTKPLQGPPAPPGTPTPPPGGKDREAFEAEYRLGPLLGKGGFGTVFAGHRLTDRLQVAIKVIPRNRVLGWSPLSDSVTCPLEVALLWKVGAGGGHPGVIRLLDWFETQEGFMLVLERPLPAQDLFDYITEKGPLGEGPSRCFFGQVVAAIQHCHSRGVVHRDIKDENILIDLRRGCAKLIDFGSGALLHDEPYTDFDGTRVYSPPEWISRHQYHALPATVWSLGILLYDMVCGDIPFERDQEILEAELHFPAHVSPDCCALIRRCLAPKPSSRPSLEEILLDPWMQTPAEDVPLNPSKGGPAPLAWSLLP
Sequence of Serine/threonine-protein kinase PAK 4 (Homo sapiens) (O96013 whole entry, looked up): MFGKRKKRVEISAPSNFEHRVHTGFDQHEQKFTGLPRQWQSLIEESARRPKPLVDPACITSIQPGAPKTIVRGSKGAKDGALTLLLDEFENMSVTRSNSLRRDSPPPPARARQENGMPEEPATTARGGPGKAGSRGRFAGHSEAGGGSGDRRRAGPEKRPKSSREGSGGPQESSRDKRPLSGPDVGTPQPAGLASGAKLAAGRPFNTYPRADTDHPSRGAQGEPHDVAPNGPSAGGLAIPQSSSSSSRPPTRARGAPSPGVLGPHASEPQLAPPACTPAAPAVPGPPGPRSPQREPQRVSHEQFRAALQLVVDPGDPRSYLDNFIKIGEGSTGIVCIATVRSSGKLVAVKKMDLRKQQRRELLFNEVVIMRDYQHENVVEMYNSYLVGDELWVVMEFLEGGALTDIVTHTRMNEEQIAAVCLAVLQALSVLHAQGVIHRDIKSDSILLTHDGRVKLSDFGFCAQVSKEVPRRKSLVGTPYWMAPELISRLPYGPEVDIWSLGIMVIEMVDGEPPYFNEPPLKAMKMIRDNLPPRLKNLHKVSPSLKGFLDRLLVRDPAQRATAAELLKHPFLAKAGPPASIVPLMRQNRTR
Sequence of Ribosomal protein S6 kinase alpha-3 (Homo sapiens) (P51812 whole entry): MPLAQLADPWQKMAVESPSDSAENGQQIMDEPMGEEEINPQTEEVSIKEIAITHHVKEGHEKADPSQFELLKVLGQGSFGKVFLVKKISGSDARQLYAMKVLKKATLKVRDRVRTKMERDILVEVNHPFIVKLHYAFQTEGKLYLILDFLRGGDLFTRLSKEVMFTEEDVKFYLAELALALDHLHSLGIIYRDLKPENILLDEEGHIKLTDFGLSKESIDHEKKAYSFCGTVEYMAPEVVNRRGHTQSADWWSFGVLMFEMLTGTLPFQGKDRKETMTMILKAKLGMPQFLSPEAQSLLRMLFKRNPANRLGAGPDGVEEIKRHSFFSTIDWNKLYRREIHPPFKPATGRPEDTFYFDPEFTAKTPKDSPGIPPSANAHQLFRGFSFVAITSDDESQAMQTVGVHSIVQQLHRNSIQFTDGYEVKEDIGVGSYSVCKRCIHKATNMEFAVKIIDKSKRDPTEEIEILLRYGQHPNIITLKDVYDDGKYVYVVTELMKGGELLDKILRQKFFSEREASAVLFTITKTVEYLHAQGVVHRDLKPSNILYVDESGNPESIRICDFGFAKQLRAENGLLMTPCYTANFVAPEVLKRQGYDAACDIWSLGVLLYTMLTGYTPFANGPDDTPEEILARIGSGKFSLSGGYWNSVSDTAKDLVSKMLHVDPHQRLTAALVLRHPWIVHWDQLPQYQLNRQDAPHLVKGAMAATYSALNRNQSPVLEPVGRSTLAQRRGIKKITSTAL

Structure (SMILES) | ΔTm [1] | ΔTm [2] | ΔTm [3] | ΔTm [4] | ΔTm [5] | ΔTm [6] | ΔTm [7] | ΔTm [8] | ΔTm [9] | ΔTm [10]
COc1cc2ncnc(Nc3ccc(NC(=O)c4ccccc4)cc3)c2cc1OC [ANILINOQUINAZOLINE1] | 0.7 °C | 0.9 °C | 2.9 °C | 0.1 °C | -0.1 °C | 0.3 °C | 0 °C | 0.3 °C | 5.5 °C | 0.3 °C
Oc1cc(O)cc(/C=C/c2ccc(O)c(O)c2)c1 [PICEATANNOL] | 1.1 °C | 0.2 °C | 0.8 °C | -0.6 °C | 0.9 °C | 1.1 °C | 1.5 °C | 2 °C | – | 0 °C
O=C1Nc2ccc(S(=O)(=O)O)cc2/C1=C1/Nc2ccccc2/C1=N\O | 0.7 °C | 1.3 °C | 8.8 °C | 3.8 °C | 1.1 °C | 3.5 °C | 2.7 °C | 3.5 °C | 5.6 °C | 0.4 °C
O=c1cc(N2CCOCC2)oc2c1ccc1ccccc12 | 0 °C | -0.1 °C | 1.1 °C | 1.2 °C | 0.4 °C | 0.6 °C | 0.2 °C | 1 °C | 0.3 °C | 0.7 °C
COc1ccc2c(c1)/C(=C/c1cnc[nH]1)C(=O)N2 [SU-9516] | 0.5 °C | 1.5 °C | 8.7 °C | 5.4 °C | 0.2 °C | 1.2 °C | 1.8 °C | 1.7 °C | – | 0 °C
CC(C)[C@H](CO)Nc1nc(Nc2cc(N)cc(Cl)c2)c2ncn(C(C)C)c2n1 [AMINOPURVALANOL] | 0.7 °C | 4.2 °C | 0.7 °C | 2.4 °C | 1.5 °C | 4.8 °C | -0.1 °C | -0.1 °C | -0.1 °C | –
Cc1nc(N)sc1-c1ccnc(Nc2cccc([N+](=O)[O-])c2)n1 | 2.5 °C | 1.8 °C | 2.1 °C | 1.2 °C | 2.1 °C | 2.2 °C | 1.6 °C | 8.1 °C | 5.9 °C | –
O=C(Nc1cccc(Nc2nccc(Nc3cccc(C(F)(F)F)c3)n2)c1)C1CC1 [ANILINOPYRIMIDINE1] | 2.8 °C | 0.7 °C | 1.1 °C | 0.2 °C | 1.8 °C | 1.3 °C | 1.5 °C | 6.9 °C | 4.8 °C | –
COc1ccc(Cl)cc1NC(=O)Nc1cc(C)nc2ccccc12 | 2.2 °C | 0.6 °C | 0 °C | 2.2 °C | 2.1 °C | 0.3 °C | -0.6 °C | 1 °C | 2.2 °C | –
O=C1Cc2c([nH]c3ccc(Br)cc23)-c2ccccc2N1 [KENPAULLONE] | 1 °C | 0.3 °C | 10.5 °C | 0.8 °C | 0.9 °C | 1.3 °C | 3.4 °C | 1.2 °C | – | -2 °C
CN(c1cccnc1)c1cc2c(Nc3ccc(F)c(Cl)c3)c(C#N)cnc2cn1 | 1.9 °C | -3.4 °C | 6.3 °C | 1.4 °C | 4.2 °C | 0.7 °C | 2.6 °C | 10.7 °C | 8.5 °C | –
CC(C)c1nn(-c2c(Cl)cccc2Cl)c2nc(Cc3ccc(OCCO)cc3)[nH]c(=O)c12 | 0.1 °C | -3.4 °C | 0.2 °C | 1 °C | 0 °C | 1.5 °C | 2.2 °C | -0.1 °C | -0.9 °C | –
O=C(Nc1cccc(Nc2cc(Nc3cccc(C(F)(F)F)c3)ncn2)c1)C1CC1 | 2.6 °C | -0.4 °C | 1.1 °C | 0.9 °C | 2.1 °C | 2 °C | 0.9 °C | 2.3 °C | 5.6 °C | –
O=C1Nc2ccccc2/C1=C\c1ccc[nH]1 | 1.3 °C | 0.6 °C | 3.3 °C | 5.2 °C | -0.1 °C | 1.7 °C | 1.2 °C | 0.8 °C | – | -0.5 °C
CN(C)C[C@@H]1CCn2cc(c3ccccc32)C2=C(C(=O)NC2=O)c2cn(c3ccccc23)CCO1 [RUBOXISTAURIN] | – | 2.9 °C | 5.9 °C | 0.1 °C | 0.1 °C | 1.5 °C | – | 2.1 °C | 8.1 °C | 0.9 °C
COc1nccc(-c2c(-c3ccc(F)cc3)ncn2[C@H]2CC[C@H](O)CC2)n1 | -0.1 °C | 0.2 °C | 0.4 °C | – | 0.8 °C | 1 °C | 0.7 °C | 0.5 °C | 0.6 °C | 0.7 °C
CN1CCc2[nH]c(=S)c(C#N)c(-c3cccs3)c2C1 | 1.3 °C | 1.9 °C | 4 °C | 4.7 °C | 1.2 °C | 1 °C | -0.4 °C | -0.3 °C | 0.7 °C | –
Cc1ccc(NC2=CC(=O)c3sc(C)nc3C2=O)cc1 | -1.6 °C | 3.7 °C | 0.4 °C | -0.2 °C | -0.3 °C | -1.2 °C | -0.7 °C | -0.6 °C | -0.5 °C | –
